Consider two molecules from patent publication US20160206674A1, “FRUIT EXTRACTS AND EXTRACT FORMULATIONS OF CANARIUM ODONTOPHYLLUM AS ACTIVES AND RELATED INVENTION EMBODIMENTS” (BIOTROPICS MALAYSIA BHD, priority 2013, published 2016).

The term inhibition denotes the percentage by which the read-out fell short of the control.

Test [1] has as its target T1, human recombinant PDE5A (Homo sapiens, UniProt O76074).
T1 construct: GST (N); purchased BPS Bioscience 60050
Put plainly: AlphaScreen cGMP PDE assay, PDE5. To be noted: n = 3. The test is classed as biochemical. How it is done:
(§1) Phosphodiesterase inhibitory activity of the test items prepared according to the procedure in example 2 and outlined in table 2 were measured using the AlphaScreen® assay technology. Materials and methods were according to technical instructions given by Perkin Elmer (www.perkinelmer.com; “Application note “AlphaScreen cGMP Phosphodiesterase Assay Using AlphaScreen cGMP Supplement with Anti-cGMP Antibody”; Authors: Martin Boissonneault, Christian Fafard, Joe Trometer, Chantal Illy, Stéphane Parent, and Roger Bossé; PerkinElmer Life and Analytical Sciences, 710 Bridgeport Avenue, Shelton, Conn. 06484 USA).
(§2) The AlphaScreen cGMP PDE assay used PerkinElmer's AlphaScreen cGMP supplement with antibody (cat. no. 6760308M or 6760308R) which consists of a biotinylated cGMP derivative and an anti-cGMP antibody. The assay also requires the AlphaScreen Protein A detection kit (PerkinElmer cat. no. 6760617), composed of Protein A acceptor beads and Streptavidin donor beads. The human recombinant PDE5A (N-terminal GST, cat no 60050) and PDE2A1 (N-terminal FLAG tag, cat no 0021) were purchased from BPS Bioscience, San Diego, United States. […]
(§3) 1—Add 5 μL of inhibitor* * Please note that for compound screening purposes, adding […] of test compounds to 4.5 μL of cGMP substrate solution prepared in the PDE reaction Buffer is recommended. […] 2—Add 5 μL of PDE (5U per well) 3—Incubate 120 minutes at 23° C. for enzymatic cleavage of unlabeled cGMP 4—Add 5 μL of the AlphaScreen cGMP Supplement (1 nM final) 5—Add 10 μL Detection mix (anti-cGMP antibody/Streptavidin-Donor beads (20 μg/mL final)/Protein A-Acceptor beads (20 μg/mL final)) 6—Incubate the plate for 1 hour at room temperature in the dark and detect the AlphaScreen signal using the microplate analyzer PHERAstar reader.

Test [2] has as its target T2, human recombinant PDE2A1 (Homo sapiens, UniProt O00408).
T2 construct: FLAG (N); purchased BPS Bioscience 0021
Put plainly: AlphaScreen cGMP PDE assay, PDE2. The test is classed as biochemical. Conditions: n = 3. Here is the method:
as §1, §2, §3

The structures appear in SMILES notation.

T2 sequence (O00408 1-920 isoform O00408-2): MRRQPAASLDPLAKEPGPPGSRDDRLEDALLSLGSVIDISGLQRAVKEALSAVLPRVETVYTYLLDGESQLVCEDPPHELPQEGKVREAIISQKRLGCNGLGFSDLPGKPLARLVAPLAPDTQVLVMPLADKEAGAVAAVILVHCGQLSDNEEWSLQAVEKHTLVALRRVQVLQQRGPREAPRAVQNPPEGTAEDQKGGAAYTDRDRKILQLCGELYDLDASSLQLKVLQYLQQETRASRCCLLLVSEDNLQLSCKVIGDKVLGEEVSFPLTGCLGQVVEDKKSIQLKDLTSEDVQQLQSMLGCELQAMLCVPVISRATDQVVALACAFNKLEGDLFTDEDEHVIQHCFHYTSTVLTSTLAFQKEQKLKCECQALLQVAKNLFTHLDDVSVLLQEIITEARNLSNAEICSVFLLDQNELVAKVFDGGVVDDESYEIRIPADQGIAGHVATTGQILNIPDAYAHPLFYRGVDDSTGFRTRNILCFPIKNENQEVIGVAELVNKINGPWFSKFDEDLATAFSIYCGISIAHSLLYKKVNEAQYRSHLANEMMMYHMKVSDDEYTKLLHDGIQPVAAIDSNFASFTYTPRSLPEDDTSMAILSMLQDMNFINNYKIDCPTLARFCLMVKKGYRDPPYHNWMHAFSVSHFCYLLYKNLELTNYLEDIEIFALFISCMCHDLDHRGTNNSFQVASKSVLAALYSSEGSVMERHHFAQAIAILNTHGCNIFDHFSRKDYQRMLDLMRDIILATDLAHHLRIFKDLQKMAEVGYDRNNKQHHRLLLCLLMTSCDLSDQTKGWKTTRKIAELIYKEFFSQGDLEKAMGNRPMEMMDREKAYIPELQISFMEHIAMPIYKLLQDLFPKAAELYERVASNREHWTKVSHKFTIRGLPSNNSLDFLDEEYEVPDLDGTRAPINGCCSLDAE

`CCCOc1ccccc1-c1nc2nn[nH]c2c(=O)[nH]1` [Zaprinast]: in test [1] (reference at 1 μM), the inhibition at 1 µM is 57%. In test [1] (reference at 5 μM), the inhibition at 5 µM is 81%. Further, the inhibition at 19 µM in test [1] (reference at 19 μM) came out at 88%.

For the molecule `CCCCCCC(C(C)O)n1cnc2c(N)ncnc21.Cl` (stereo not drawn) [EHNA], the “% inhibition of PDE-2” value amounted to 98% in test [2] (Reference at 10 μM), 33% in test [2] (reference at 1 μM) and 73% in test [2] (reference at 5 μM).
